Measured values as given in patent publication US11702422B2, “Imidazopyridazines as modulators of IL-17” (Janssen Pharmaceutica NV, priority 2020, dated 2023).

Key:
[1] = biological target: IL-17A(FLAG-Tagged): IL-17RA(His-Tagged) (Homo sapiens, UniProt Q16552, K93Q); assay: IL-17A(FLAG-Tagged): IL-17RA(His-Tagged) Binding Disruption Eu-HTRF Assay; conditions: IL-17A/IL-17RA binding disruption, simple average if tested more than once
Method in brief: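 IC50 comes from a one-site competition fit of the HTRF 665/620 nm ratio. Compound dilutions (2-fold, 22 points) were held 1 h rt with FLAG-tagged IL-17A dimer, then His-tagged IL-17RA plus Eu-cryptate anti-FLAG and D2 anti-His antibodies were added for 2 h rt.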

[2] = test system: IL-17A-induced G-CSF production in human normal keratinocyte (NHK); assay: NHK Assay: IL-17A-induced G-CSF production in human normal keratinocytes; format: cell-based; conditions: adult normal human keratinocytes, IL-17A 5 ng/mL, 24 h, simple average if tested more than once
Method in brief: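 IL-17A (5 ng/mL final) was pre-incubated 1 h at rt with titrated compound and then added to adult normal human keratinocytes (5% FBS, 0.2% DMSO) for 24 h at 37° C. Supernatant G-CSF was measured by HTRF against a standard curve to derive IC50. Viability was checked by CellTiter-Glo.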

Chain of UniProt Q16552 (Q16552 with tags, fused parts or gaps K93Q): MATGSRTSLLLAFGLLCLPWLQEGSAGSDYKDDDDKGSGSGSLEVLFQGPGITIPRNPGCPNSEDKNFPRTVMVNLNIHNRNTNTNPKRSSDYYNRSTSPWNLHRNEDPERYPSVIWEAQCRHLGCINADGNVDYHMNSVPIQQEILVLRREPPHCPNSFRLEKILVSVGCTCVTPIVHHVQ

SMILES | IC50 [1] [nM] | IC50 [2] [nM] | IC50 ([2]; Homo sapiens, Keratinocyte) [nM]
Cc1c(C(=O)N[C@H](c2cn3ncc(C(NC(=O)CCC(F)(F)F)C4CC4)cc3n2)C2CCC(F)(F)CC2)cnn1CCC(F)(F)F (single isomer, unassigned) [Example 53, N—((S)-(7-((S*)-Cyclopropyl(4,4,4-trifluorobutanamido)methyl)imidazo[1,2-b]pyridazin-2-yl)(4,4-difluorocyclohexyl)methyl)-5-methyl-1-(3,3,3-trifluoropropyl)-1H-pyrazole-4-carboxamide] | 11000 | > 20000 | 
[2H]C([2H])([2H])C([2H])([2H])n1nccc1C(=O)N[C@H](c1cn2ncc(C(COCC)NC(=O)CC3CC(F)(F)C3)cc2n1)C1CCC(F)(F)CC1 (single isomer, unassigned) [Example 530, N—((S)-(7-((R*)-1-(2-(3,3-Difluorocyclobutyl)acetamido)-2-ethoxyethyl)imidazo[1,2-b]pyridazin-2-yl)(4,4-difluorocyclohexyl)methyl)-1-(ethyl-d5)-1H-pyrazole-5-carboxamide] | 980 | 4600 | 
Cc1nonc1C(=O)N[C@H](c1cn2ncc([C@H](NC(=O)[C@@H]3CC[C@@H]3F)C3CC3)cc2n1)C1CCC(F)(F)CC1 (relative stereo) [Example 337, N—((S)-(7-((R)-Cyclopropyl((1S*,2S*)-2-fluorocyclobutane-1-carboxamido)methyl)imidazo[1,2-b]pyridazin-2-yl)(4,4-difluorocyclohexyl)methyl)-4-methyl-1,2,5-oxadiazole-3-carboxamide] | 3500 |  | > 20000
COCC(NC(=O)CC1CC(F)(F)C1)c1cnn2cc([C@@H](NC(=O)c3nonc3C3CC3)C3CCC(F)(F)CC3)nc2c1 (single isomer, unassigned) [Example 524, 4-Cyclopropyl-N—((S)-(7-((S*)-1-(2-(3,3-difluorocyclobutyl)acetamido)-2-methoxyethyl)imidazo[1,2-b]pyridazin-2-yl)(4,4-difluorocyclohexyl)methyl)-1,2,5-oxadiazole-3-carboxamide] | 380 | 3700 | 
O=C(CC1CC(F)(F)C1)NC(c1cnn2cc([C@@H](NC(=O)c3cnnn3CCC(F)(F)F)C3CCC(F)(F)CC3)nc2c1)C1CC1 (single isomer, unassigned) [Example 73, N—((S)-(7-((R*)-Cyclopropyl(2-(3,3-difluorocyclobutyl)acetamido)methyl)imidazo[1,2-b]pyridazin-2-yl)(4,4-difluorocyclohexyl)methyl)-1-(3,3,3-trifluoropropyl)-1H-1,2,3-triazole-5-carboxamide] | 1900 | ~15000 | 
O=C(CCC(F)(F)F)N[C@@H](c1cnn2cc([C@@H](NC(=O)c3cnnn3CC3CCC3(F)F)C3CCC(F)(F)CC3)nc2c1)C1CC1 (stereo partly drawn) [Example 91, N—((S)-(7-((R)-Cyclopropyl(4,4,4-trifluorobutanamido)methyl)imidazo[1,2-b]pyridazin-2-yl)(4,4-difluorocyclohexyl)methyl)-1-((2,2-difluorocyclobutyl)methyl)-1H-1,2,3-triazole-5-carboxamide] | 92 |  | 120
Cc1cc(C(=O)N[C@H](c2cn3ncc([C@H](NC(=O)CCC(F)(F)F)C4CC4)cc3n2)C2CCC(F)(F)CC2)ncn1 [Example 218, N—((S)-(7-((R)-Cyclopropyl(4,4,4-trifluorobutanamido)methyl)imidazo[1,2-b]pyridazin-2-yl)(4,4-difluorocyclohexyl)methyl)-6-methylpyrimidine-4-carboxamide] | 2000 |  | > 20000
O=C(CCC(F)(F)F)N[C@@H](c1cnn2cc([C@@H](NC(=O)c3conc3C(F)(F)F)C3CCC(F)(F)CC3)nc2c1)C1CC1 [Example 101, N—[(S)-[7-[(R)-Cyclopropyl-(4,4,4-trifluorobutanoylamino)methyl]imidazo[1,2-b]pyridazin-2-yl]-(4,4-difluorocyclohexyl)methyl]-3-(trifluoromethyl)isoxazole-4-carboxamide] | 39 |  | 160
Cc1nonc1C(=O)N[C@H](c1cn2ncc(C(NC(=O)CC3CC(F)(F)C3)C3CCC3)cc2n1)C1CCC(F)(F)CC1 (single isomer, unassigned) [Example 493, N—((S)-(7-((R*)-Cyclobutyl(2-(3,3-difluorocyclobutyl)acetamido)methyl)imidazo[1,2-b]pyridazin-2-yl)(4,4-difluorocyclohexyl)methyl)-4-methyl-1,2,5-oxadiazole-3-carboxamide] | 79 | 120 | 
CC(CC(=O)N[C@@H](c1cnn2cc([C@@H](NC(=O)c3conc3OCC(F)F)C3CCC(F)(F)CC3)nc2c1)C1CC1)C(F)(F)F (single isomer, unassigned) [Example 299, N—((S)-(7-((R)-Cyclopropyl((S*)-4,4,4-trifluoro-3-methylbutanamido)methyl)imidazo[1,2-b]pyridazin-2-yl)(4,4-difluorocyclohexyl)methyl)-3-(2,2-difluoroethoxy)isoxazole-4-carboxamide] | 300 | 840 | 
CCn1nccc1C(=O)N[C@H](c1cn2ncc([C@H](NC(=O)CC3CC(F)(F)C3)C3CC3)cc2n1)C1CCC(F)(F)CC1 [Example 126, N—((S)-(7-((R)-Cyclopropyl(2-(3,3-difluorocyclobutyl)acetamido)methyl)imidazo[1,2-b]pyridazin-2-yl)(4,4-difluorocyclohexyl)methyl)-1-ethyl-1H-pyrazole-5-carboxamide] | 46 |  | 84
COc1nccc(C(=O)N[C@H](c2cn3ncc([C@H](NC(=O)CCC(F)(F)F)C4CC4)cc3n2)C2CCC(F)(F)CC2)n1 [Example 211, N—((S)-(7-((R)-Cyclopropyl(4,4,4-trifluorobutanamido)methyl)imidazo[1,2-b]pyridazin-2-_yl)(4,4-difluorocyclohexyl)methyl)-2-methoxypyrimidine-4-carboxamide] | 4300 |  | > 20000

Further lines, with some results ahead:

IC50 [1] [nM] | SMILES | IC50 [2] [nM] | IC50 ([2]; Homo sapiens, Keratinocyte) [nM]
690 | CC(C)n1nccc1C(=O)N[C@H](c1cn2ncc(C(NC(=O)CC(C(F)(F)F)C(F)(F)F)C3CC3)cc2n1)C1CCC(F)(F)CC1 (single isomer, unassigned) [Example 11, N-((S)-(7-((S*)-Cyclopropyl(4,4,4-trifluoro-3-(trifluoromethyl)butanamido)methyl)imidazo[1,2-b]pyridazin-2-yl)(4,4-difluorocyclohexyl)methyl)-1-isopropyl-1H-pyrazole-5-carboxamide] | 1400 | 
110 | CC(C)n1nccc1C(=O)N[C@H](c1cn2ncc([C@H](NC(=O)COC3CC3)C3CC3)cc2n1)C1CCC(F)(F)CC1 [Example 307, N—((S)-(7-((R)-(2-Cyclopropoxyacetamido)(cyclopropyl)methyl)imidazo[1,2-b]pyridazin-2-yl)(4,4-difluorocyclohexyl)methyl)-1-isopropyl-1H-pyrazole-5-carboxamide] |  | 420
88 | CC(C)n1nccc1C(=O)N[C@H](c1cn2ncc([C@H](NC(=O)CC(C)C(F)(F)F)C3CC3)cc2n1)C1CCC(F)(F)CC1 (single isomer, unassigned) [Example 121, N—((S)-(7-((R)-Cyclopropyl((R*)-4,4,4-trifluoro-3-methylbutanamido)methyl)imidazo[1,2-b]pyridazin-2-yl)(4,4-difluorocyclohexyl)methyl)-1-isopropyl-1H-pyrazole-5-carboxamide] |  | 110
420 | CCn1ncc(C(=O)N[C@H](c2cn3ncc([C@H](NC(=O)CCC(F)(F)F)C4CC4)cc3n2)C2CCC(F)(F)CC2)n1 [Example 59, N—((S)-(7-((R)-Cyclopropyl(4,4,4-trifluorobutanamido)methyl)imidazo[1,2-b]pyridazin-2-yl)(4,4-difluorocyclohexyl)methyl)-2-ethyl-2H-1,2,3-triazole-4-carboxamide] |  | 3600
170 | CC(C)n1nccc1C(=O)N[C@H](c1cn2ncc([C@H](NC(=O)CO[C@@H](C)C(F)(F)F)C3CC3)cc2n1)C1CCC(F)(F)CC1 (single isomer, unassigned) [Example 310] |  | 220
780 | O=C(CCC(F)(F)F)N[C@@H](c1cnn2cc([C@@H](NC(=O)c3ccccn3)C3CCC(F)(F)CC3)nc2c1)C1CC1 [Example 456, N—((S)-(7-((R)-Cyclopropyl(4,4,4-trifluorobutanamido)methyl)imidazo[1,2-b]pyridazin-2-yl)(4,4-difluorocyclohexyl)methyl)picolinamide] |  | > 20000
200 | Cc1nonc1C(=O)N[C@H](c1cn2ncc([C@H](NC(=O)COCC(F)(F)F)C3CC3)cc2n1)C1CCC(F)(F)CC1 [Example 327, N—((S)-(7-((R)-Cyclopropyl(2-(2,2,2-trifluoroethoxy)acetamido)methyl)imidazo[1,2-b]pyridazin-2-yl)(4,4-difluorocyclohexyl)methyl)-4-methyl-1,2,5-oxadiazole-3-carboxamide] |  | 890
250 | CC(C)n1nccc1C(=O)N[C@H](c1cn2ncc([C@H](NC(=O)COCC(F)(F)F)C3CC3)cc2n1)C1CCC(F)(F)CC1 [Example 303, N—((S)-(7-((R)-Cyclopropyl(2-(2,2,2-trifluoroethoxy)acetamido)methyl)imidazo[1,2-b]pyridazin-2-yl)(4,4-difluorocyclohexyl)methyl)-1-isopropyl-1H-pyrazole-5-carboxamide] |  | 280
